For the test, the system named is sediment microcosms. Put plainly: Effect of TCC, TCS and BES on TCE dechlorination in sediment microcosms and cultures derived from them. In kind it is cell-based. To be noted: for effect on TCE reductive dechlorination in microcosms: addition of 20 μg/L TCC and TCS; for effect on TCE dechlorination rates in sediment-free cultures: cultures from microcosms amended with TCC, TCS, BES. The method, then: In this study, microcosm is defined as: anaerobic airtight serum bottles with sediment samples, anaerobic medium, electron donor, and a chlorinated compound used as an electron acceptor. Four microcosms were set up in the anaerobic glove chamber with H2 concentration of 3% (Coy laboratory products Inc. Grass Lake, Mich.). Ten gram of homogeneously mixed sediment from either core A or core D were transferred independently into a 160 ml sterile serum bottle, and 90 ml anaerobic media with vitamin solution and 2 mM lactate were added. One hundred μL of 20 mg/L TCC stock solution in methanol and 100 μL of 20 mg/L TCS stock solution were added by pipette (Eppendorf, Calif.) to two of the four microcosms. Microcosms were capped with thick black butyl rubber stoppers and aluminum crimps. 4.5 μL pure TCE was injected with airtight syringe (Hamilton Company, Reno, Nev.) into each serum bottle. On day 130, in order to inhibit methane production in the sediment microcosms, 25 mM BES was added in to sediment-A microcosm and sediment-D microcosm with TCC and TCS with airtight syringe (Hamilton Company, Reno, Nev.). Microcosms were stored in the dark and incubated at 30° C.
Production of Sediment-Free Cultures. To establish sediment-free cultures from core A and core D sediment microcosms, the microcosms were shaken vigorously, and the solids were allowed to settle down. Then, using 1-inch, 21-gauge sterile needles, […] liquid (10 ml) were transferred into 89 ml sterile medium with the following contents: anaerobic medium, ATCC vitamin mix, and vitamin B12, in 160-ml serum bottles. Then, 1 ml each of 500-mM lactate stock solution and 35-μL TCE stock solution (1 mol/L in methanol) were added to form a 100 ml culture in 160-ml serum bottle. Three sediment cultures were derived from each sediment microcosm, and 12 sediment-free cultures were produced (FIG. 1). For organizational purposes, we refer to the sediment-free cultures generated from sediment-A microcosms as SCA and the sediment free cultures generated from sediment-D microcosms as DehaloR̂2, in the figures herein, the DehaloR̂2 are referred to as “SCD”. Thus, the term “SCD” and DehaloR̂2 are used interchangeably herein as the composition “SCD” was renamed “DehaloR̂2” during the course of investigation. The sediment-free cultures were kept in the dark and incubated at 30° C. After all the chlorinated electron acceptors were consumed, the cultures were re-spiked with TCE and electron donors.
BES (2-bromoethanesulfonate) is an efficient inhibitor for the metabolism of methanogens in methanogenetic cultures because it is a structural analog and competitive inhibitor of coenzyme M, which is only found in methanogens (Dimarco et al., 1990; Sparling and Daniels, 1987). Different concentrations of BES have been used by researchers. […] In this study, in order to determine if the cause for incomplete reductive dechlorination was competition for electron donor between methanogens and TCE dechlorinating microorganisms in the microcosms, I added 25 mM BES, 70 μmol of TCE, and 5 mM lactate into two sediment microcosms, sediment-A and sediment-D with TCC and TCS. In two other sediment microcosms, I added 70 μmol of TCE and 5 mM lactate without BES.

For the compound `O=C(Nc1ccc(Cl)cc1)Nc1ccc(Cl)c(Cl)c1` [TCC, 3-(4-chlorophenyl)-1-(3,4-dichlorphenyl) urea], the “effect on TCE reductive dechlorination in microcosms” value is reported as “can be neglected” and the “effect on TCE dechlorination rates in sediment-free cultures” value is “slow down TCE dechlorination rates”.
Consider `Oc1cc(Cl)ccc1Oc1ccc(Cl)cc1Cl` [TCS, 5-chloro-2-[2,4-dichloro-phenoxy]-phenol], for which the “effect on TCE reductive dechlorination in microcosms” value is “can be neglected” and the “effect on TCE dechlorination rates in sediment-free cultures” value is “slow down TCE dechlorination rates”.

(Values after patent US20120178147A1, “MICROBIAL CULTURES AND METHODS FOR ANAEROBIC BIOREMEDIATION” (priority 2009, published 2012).)
